6 molecules from patent US20250115620A1, “BRIDGED TRICYCLIC CARBAMOYLPYRIDONE COMPOUNDS AND USES THEREOF” (Gilead Sciences, Inc., priority 2022, published 2025) can be followed below.

For series [1], the system named is pLAI reporter virus. In words: microbe, parasite or virus in culture. It is filed as cell-based, HIV. The settings on record: Human immunodeficiency virus 1, MT4, 72 h.
For series [2], the system named is HIV-1 (IIIB). Description: microbe, parasite or virus in culture. It is filed as cell-based. The settings on record: Human immunodeficiency virus 1, IIIB, MT4, 120 h, read-out: MT4 EC50.
Series [3] is described as follows: in vitro. To be noted: human, uninfected MT-4 cells.
[4] abbreviates: HIV-1 (IIIB) in MT-4 cells, 5 days incubation, Cell Titer Glo.

Where two headings read alike, the source gives them in different places.

In the case of `C[C@H]1CO[C@]2(CC[C@H](C)N3C[C@H]2n2cc(C(=O)NCc4c(F)cc(F)cc4F)c(=O)c(O)c2C3=O)O1` [Example 127, (2R,3′S,4S,7′R)-12′-hydroxy-3′,4-dimethyl-1′,11′-dioxo-N-(2,4,6-trifluorobenzyl)-1′,4′,5′,11′-tetrahydro-3′H,7′H-spiro[[1,3]dioxolane-2,6′-[2,7]methanopyrido[1,2-a][1,4]diazonine]-10′-carboxamide], the EC50 (in general, the midpoint of the concentration-response curve) in series [1] (read-out: RLUC 50% HS EC50) turned out to be 13.3 nM; in series [1] (read-out: RLUC CCM EC50), 0.1 nM; in series [2] (setting [4]), 1.2 nM. For the same molecule, in series [3], it took 49900 nM to reach half-maximal cytotoxicity (CC50 at 5 days).

In the case of `C[C@H]1CC[C@]2(CC(C3CC3)=NO2)[C@H]2CN1C(=O)c1c(O)c(=O)c(C(=O)NCc3ccc(F)cc3F)cn12` [Example 15, (3′S,5S,7′R)-3-cyclopropyl-N-(2,4-difluorobenzyl)-12′-hydroxy-3′-methyl-1′,11′-dioxo-1′,4′,5′,11′-tetrahydro-3′H,4H,7′H-spiro[isoxazole-5,6′-[2,7]methanopyrido[1,2-a][1,4]diazonine]-10′-carboxamide], the EC50 in series [1] (read-out: RLUC 50% HS EC50) stood at 3.8 nM; in series [1] (read-out: RLUC CCM EC50), 0.8 nM; in series [2] (setting [4]), 2.4 nM. In addition, in series [3], the CC50 (in general, the concentration that lowers cell viability or growth by half) at 5 days was at least 50000 nM.

`C[C@@H](F)C1=NO[C@@]2(CC[C@H](C)N3C[C@H]2n2cc(C(=O)NCc4c(F)cc(F)cc4F)c(=O)c(O)c2C3=O)C1` [Example 70, (3′S,5S,7′R)-3-((R)-1-fluoroethyl)-12′-hydroxy-3′-methyl-1′,11′-dioxo-N-(2,4,6-trifluorobenzyl)-1′,4′,5′,11′-tetrahydro-3′H,4H,7′H-spiro[isoxazole-5,6′-[2,7]methanopyrido[1,2-a][1,4]diazonine]-10′-carboxamide]: the EC50 in series [1] (read-out: RLUC 50% HS EC50) was 176 nM; in series [1] (read-out: RLUC CCM EC50), 0.4 nM; in series [2] (setting [4]) it was 1.3 nM. Moreover, half-maximal cytotoxicity in series [3] (CC50 at 5 days) was put at 26600 nM.

Consider `C[C@H]1CC[C@]2(CC(CF)=NO2)[C@H]2CN1C(=O)c1c(O)c(=O)c(C(=O)NCc3c(F)cc(F)cc3F)cn12` [Example 19, (3′S,5S,7′R)-3-(fluoromethyl)-12′-hydroxy-3′-methyl-1′,11′-dioxo-N-(2,4,6-trifluorobenzyl)-1′,4′,5′,11′-tetrahydro-3′H,4H,7′H-spiro[isoxazole-5,6′-[2,7]methanopyrido[1,2-a][1,4]diazonine]-10′-carboxamide], for which the EC50 in series [1] (read-out: RLUC 50% HS EC50) was 163 nM; in series [1] (read-out: RLUC CCM EC50), 0.2 nM; in series [2], 1 nM. The CC50 at 5 days in series [3] was determined as 22900 nM.

For `C[C@H]1CC[C@@]2(COC(C)(C)O2)[C@H]2CN1C(=O)c1c(O)c(=O)c(C(=O)NCc3c(F)cc(F)cc3F)cn12` [Example 138, (3′S,4S,7′R)-12′-hydroxy-2,2,3′-trimethyl-1′,11′-dioxo-N-(2,4,6-trifluorobenzyl)-1′,4′,5′,11′-tetrahydro-3′H,7′H-spiro[[1,3]dioxolane-4,6′-[2,7]methanopyrido[1,2-a][1,4]diazonine]-10′-carboxamide], the values for the EC50 in series [1] (read-out: RLUC 50% HS EC50), in series [1] (read-out: RLUC CCM EC50) and in series [2] (setting [4]) were 13.1 nM, 0.5 nM and 2 nM, respectively. This molecule also gave a CC50 at 5 days in series [3] of 23200 nM.

Turning to `COC1=NO[C@@]2(CCCN3C[C@H]2n2cc(C(=O)NCc4c(F)cc(F)cc4F)c(=O)c(O)c2C3=O)C1` [Example 96, (5S,7′R)-12′-hydroxy-3-methoxy-1′,11′-dioxo-N-(2,4,6-trifluorobenzyl)-1′,4′,5′,11′-tetrahydro-3′H,4H,7′H-spiro[isoxazole-5,6′-[2,7]methanopyrido[1,2-a][1,4]diazonine]-10′-carboxamide], the EC50 in series [1] (read-out: RLUC 50% HS EC50) was 1.2 nM; in series [1] (read-out: RLUC CCM EC50), 0.2 nM; in series [2] (setting [4]), 1.1 nM. In series [3], this molecule gave a CC50 at 5 days of 31400 nM.
